{"source": "patent US10626095B2", "about": "“Cyanotriazole compounds” (OTSUKA PHARMACEUTICAL CO., LTD., priority 2013, dated 2020)", "test_system": "NaCT-CHO (CHO cells stably expressing human NaCT)", "experiment": "Assay of the citric acid cycle activation ([1,5-14C]-citric acid, diffusion of [14C]-CO2)", "assay_type": "cell-based", "settings": "1 hour incubation at 37° C. with [1,5-14C]-citric acid", "source_text": "Assay of the Citric Acid Cycle Activation\n(1) Construction of the Human NaCT Expression Vector pME-NaCT\nThe human NaCT (also called SLC13A5 or NAC2; GenBank accession No. NM_177550) cDNA was inserted into the EcoRI-NotI site of the mammalian expression vector pME18S (GenBank accession No. AB009864) and purified by Qiagen Plasmid Maxi Kit (Qiagen).\n(2) Establishment of NaCT Stably Expressed CHO Cells\nThe pME-NaCT vector and the pcDNA™3.1 vector containing the neomycin resistance gene (Life Technologies) were co-transfected into CHO-K1 cells (ATCC) by Lipofectaimine 2000 reagent (Life Technologies). The next day the cells were subcultured in Nutrient Mixture F-12 Ham (Sigma-Aldrich) with 10% FBS (Biological Industries), and Geneticin (Life Technologies) was added (final concentration 350 μg/mL) in the following day. CHO cell clones stably expressing NaCT were given by neomycin resistant cell screening and limiting dilution method. Established cell lines (named NaCT-CHO) were also maintained in culture medium (Nutrient Mixture F-12 Ham) with 10% FBS and 350 μg/mL Geneticin. For control cells (named pME-CHO) preparation, the naive pME18S were also transfected instead of pME-NaCT into CHO-K1 cells.\n(3) Assay of the Citric Acid Cycle Activation\nNaCT-CHO and pME-CHO were plated at 20,000 cells/well into white CulturPlate™-96 (PerkinElmer) two days before the assay. Prior to assay incubation, the cultured plates were washed twice with washing buffer, 10 mM HEPES-Tris(pH7.4) containing 140 mM choline chloride, 2 mM KCl, 1 mM CaCl2, 1 mM MgCl2. The compounds to be tested were dissolved and diluted in DMSO (Wako Pure Chemical industries) to 1,000 times of a final concentration, and further diluted to two times as high as the final concentration in assay buffer, 10 mM HEPES-Tris(pH7.4) containing 140 mM NaCl, 2 mM KCl, 1 mM CaCl2, 1 mM MgCl2. The range of final concentrations was properly determined based on the test compounds activity. Each 25 μL compound solution was added to well and subsequently 25 μL radio-labeled substrate solution containing 0.4 mM (0.4 MBq/mL) [1,5-^14C]-citric acid (PerkinElmer) in the assay buffer was added. After 1 hour incubation at 37° C., the reaction mixture was discarded and washed three times with pre-chilled washing buffer and then 0.1 mL MicroScint 20 (PerkinElmer) was added to well. The plate was sealed with TopSeal-A (PerkinElmer) and the radioactivity was measured using a TopCount (PerkinElmer). Non-specific activity (NS cpm) and total radio activity (Total cpm) were determined by counting of pME-CHO plated wells and NaCT-CHO plated wells without compounds, respectively. Diffusion of [^14C]—CO2 was able to be estimated from residual radioactivity (R cpm) by an equation (Total−R)/(Total−NS)×100(%). The difference of Total and R was disappeared in the presence of 0.1 μM antimycin A. EC50 values were calculated by regression analysis using SAS Statistical Analysis System (SAS institute Japan Ltd. Release 9.1)."}
{"smiles": "N#Cc1[nH]nnc1-c1csc(C23CC4CC(CC(C4)C2)C3)n1", "note": "[Example 88, 5-(2-(adamantan-1-yl)-thiazol-4-yl)-3H-[1,2,3]triazole-4-carbonitrile]", "values": [{"measurement": "EC50", "value": 0.62, "unit": "µM"}]}
{"smiles": "Cc1sc(-c2ccc(Cl)cc2)nc1-c1nn[nH]c1C#N", "note": "[Example 89, 5-[2-(4-chloro-phenyl)-5-methyl-thiazol-4-yl]-3H-[1,2,3]triazole-4-carbonitrile]", "values": [{"measurement": "EC50", "value": 0.76, "unit": "µM"}]}
{"smiles": "Cc1sc(-c2cccc(C(F)(F)F)c2)nc1-c1nn[nH]c1C#N", "note": "[Example 91, 5-[5-methyl-2-(3-trifluoromethyl-phenyl)-thiazol-4-yl]-3H-[1,2,3]triazole-4-carbonitrile]", "values": [{"measurement": "EC50", "value": 0.7, "unit": "µM"}]}
{"smiles": "Cc1sc(-c2ccc(C(F)(F)F)cn2)nc1-c1nn[nH]c1C#N", "note": "[Example 93, 5-[5-methyl-2-(5-trifluoromethyl-pyridin-2-yl)-thiazol-4-yl]-3H-[1,2,3]triazole-4-carbonitrile]", "values": [{"measurement": "EC50", "value": 0.58, "unit": "µM"}]}
{"smiles": "Cc1sc(-c2cccc(C(F)(F)F)n2)nc1-c1nn[nH]c1C#N", "note": "[Example 94, 5-[5-methyl-2-(6-trifluoromethyl-pyridin-2-yl)-thiazol-4-yl]-3H-[1,2,3]triazole-4-carbonitrile]", "values": [{"measurement": "EC50", "value": 0.79, "unit": "µM"}]}
{"smiles": "Cc1sc(-c2ccc(Cl)cn2)nc1-c1nn[nH]c1C#N", "note": "[Example 95, 5-[2-(5-chloro-pyridin-2-yl)-5-methyl-thiazol-4-yl]-3H-[1,2,3]triazole-4-carbonitrile]", "values": [{"measurement": "EC50", "value": 0.74, "unit": "µM"}]}
{"smiles": "Cc1sc(Oc2ccc(OC(F)(F)F)cc2)nc1-c1nn[nH]c1C#N", "note": "[Example 96, 5-[5-methyl-2-(4-trifluoromethoxy-phenoxy)-thiazol-4-yl]-3H-[1,2,3]triazole-4-carbonitrile]", "values": [{"measurement": "EC50", "value": 0.67, "unit": "µM"}]}
{"smiles": "Cc1sc(Sc2cccc(C(F)(F)F)c2)nc1-c1nn[nH]c1C#N", "note": "[Example 97, 5-[5-methyl-2-(3-trifluoromethyl-phenylsulfanyl)-thiazol-4-yl]-3H-[1,2,3]triazole-4-carbonitrile]", "values": [{"measurement": "EC50", "value": 0.5, "unit": "µM"}]}
{"smiles": "CCc1sc(-c2cccc(C(F)(F)F)c2)nc1-c1nn[nH]c1C#N", "note": "[Example 99, 5-[5-ethyl-2-(3-trifluoromethyl-phenyl)-thiazol-4-yl]-3H-[1,2,3]triazole-4-carbonitrile]", "values": [{"measurement": "EC50", "value": 0.54, "unit": "µM"}]}
{"smiles": "CCc1sc(-c2ccc(C(F)(F)F)nc2)nc1-c1nn[nH]c1C#N", "note": "[Example 101, 5-[5-ethyl-2-(6-trifluoromethyl-pyridin-3-yl)-thiazol-4-yl]-3H-[1,2,3]triazole-4-carbonitrile]", "values": [{"measurement": "EC50", "value": 0.85, "unit": "µM"}]}
{"smiles": "CCc1sc(Oc2ccc(Cl)cc2)nc1-c1nn[nH]c1C#N", "note": "[Example 102]", "values": [{"measurement": "EC50", "value": 0.36, "unit": "µM"}]}
{"smiles": "CCCc1sc(-c2ccc(Cl)cc2)nc1-c1nn[nH]c1C#N", "note": "[Example 103, 5-[2-(4-chloro-phenyl)-5-propyl-thiazol-4-yl]-3H-[1,2,3]triazole-4-carbonitrile]", "values": [{"measurement": "EC50", "value": 0.23, "unit": "µM"}]}
{"smiles": "CCCc1sc(-c2cccc(C(F)(F)F)c2)nc1-c1nn[nH]c1C#N", "note": "[Example 104, 5-[5-propyl-2-(3-trifluoromethyl-phenyl)-thiazol-4-yl]-3H-[1,2,3]triazole-4-carbonitrile]", "values": [{"measurement": "EC50", "value": 0.7, "unit": "µM"}]}
{"smiles": "N#Cc1[nH]nnc1-c1nc(-c2ccc(Cl)cc2)sc1C1CC1", "note": "[Example 105, 5-[2-(4-chloro-phenyl)-5-cyclopropyl-thiazol-4-yl]-3H-[1,2,3]triazole-4-carbonitrile]", "values": [{"measurement": "EC50", "value": 1.91, "unit": "µM"}]}
{"smiles": "CC(C)Cc1sc(-c2ccc(Cl)cc2)nc1-c1nn[nH]c1C#N", "note": "[Example 106, 5-[2-(4-chloro-phenyl)-5-isobutyl-thiazol-4-yl]-3H-[1,2,3]triazole-4-carbonitrile]", "values": [{"measurement": "EC50", "value": 0.84, "unit": "µM"}]}
{"smiles": "N#Cc1[nH]nnc1-c1nc(-c2ccc(Cl)cc2)sc1-c1ccc(C(F)(F)F)cc1", "note": "[Example 107, 5-[2-(4-chloro-phenyl)-5-(4-trifluoromethyl-phenyl)-thiazol-4-yl]-3H-[1,2,3]triazole-4-carbonitrile]", "values": [{"measurement": "EC50", "value": 2.56, "unit": "µM"}]}
{"smiles": "N#Cc1[nH]nnc1-c1nc(Oc2ccc(OC(F)(F)F)cc2)sc1Cl", "note": "[Example 109, 5-[5-chloro-2-(4-trifluoromethoxy-phenoxy)-thiazol-4-yl]-3H-[1,2,3]triazole-4-carbonitrile]", "values": [{"measurement": "EC50", "value": 0.67, "unit": "µM"}]}
{"smiles": "COc1sc(-c2ccc(Cl)cc2)nc1-c1nn[nH]c1C#N", "note": "[Example 110, 5-[2-(4-chloro-phenyl)-5-methoxy-thiazol-4-yl]-3H-[1,2,3]triazole-4-carbonitrile]", "values": [{"measurement": "EC50", "value": 3.23, "unit": "µM"}]}
{"smiles": "N#Cc1[nH]nnc1-c1cnc(-c2cccc(C(F)(F)F)c2)s1", "note": "[Example 111, 5-[2-(3-trifluoromethyl-phenyl)-thiazol-5-yl]-3H-[1,2,3]triazole-4-carbonitrile]", "values": [{"measurement": "EC50", "value": 0.75, "unit": "µM"}]}
{"smiles": "N#Cc1[nH]nnc1-c1cnc(/C=C/c2cccc(C(F)(F)F)c2)s1", "note": "[Example 112, 5-{2-[(E)-2-(3-trifluoromethyl-phenyl)-vinyl]-thiazol-5-yl}-3H-[1,2,3]triazole-4-carbonitrile]", "values": [{"measurement": "EC50", "value": 0.79, "unit": "µM"}]}
{"smiles": "Cc1nc(-c2ccc(Cl)cc2)sc1-c1nn[nH]c1C#N", "note": "[Example 113, 5-[2-(4-chloro-phenyl)-4-methyl-thiazol-5-yl]-3H-[1,2,3]triazole-4-carbonitrile]", "values": [{"measurement": "EC50", "value": 0.79, "unit": "µM"}]}
{"smiles": "Cc1nc(-c2cccc(C(F)(F)F)c2)sc1-c1nn[nH]c1C#N", "note": "[Example 114, 5-[4-methyl-2-(3-trifluoromethyl-phenyl)-thiazol-5-yl]-3H-[1,2,3]triazole-4-carbonitrile]", "values": [{"measurement": "EC50", "value": 0.45, "unit": "µM"}]}
{"smiles": "CCc1nc(-c2ccc(Cl)cc2)sc1-c1[nH]nnc1C#N", "note": "[Example 115, 5-[2-(4-chloro-phenyl)-4-ethyl-thiazol-5-yl]-1H-[1,2,3]triazole-4-carbonitrile]", "values": [{"measurement": "EC50", "value": 0.65, "unit": "µM"}]}
{"smiles": "N#Cc1[nH]nnc1-c1sc(-c2ccc(F)c(Cl)c2)nc1C(F)(F)F", "note": "[Example 116, 5-[2-(3-chloro-4-fluoro-phenyl)-4-trifluoromethyl-thiazol-5-yl]-3H-[1,2,3]triazole-4-carbonitrile]", "values": [{"measurement": "EC50", "value": 4.13, "unit": "µM"}]}
{"smiles": "N#Cc1[nH]nnc1-c1coc(-c2ccc(OC(F)(F)F)cc2)n1", "note": "[Example 117, 5-[2-(4-trifluoromethoxy-phenyl)-oxazol-4-yl]-3H-[1,2,3]triazole-4-carbonitrile]", "values": [{"measurement": "EC50", "value": 1.59, "unit": "µM"}]}
{"smiles": "CCCc1oc(-c2ccc(Cl)cc2)nc1-c1nn[nH]c1C#N", "note": "[Example 119, 5-[2-(4-chloro-phenyl)-5-propyl-oxazol-4-yl]-3H-[1,2,3]triazole-4-carbonitrile]", "values": [{"measurement": "EC50", "value": 0.71, "unit": "µM"}]}
{"smiles": "N#Cc1[nH]nnc1-c1nc(-c2cccc(Cl)c2)oc1C1CC1", "note": "[Example 121, 5-[2-(3-chloro-phenyl)-5-cyclopropyl-oxazol-4-yl]-3H-[1,2,3]triazole-4-carbonitrile]", "values": [{"measurement": "EC50", "value": 0.99, "unit": "µM"}]}
{"smiles": "CC(C)c1oc(-c2ccc(F)cc2)nc1-c1nn[nH]c1C#N", "note": "[Example 123, 5-[2-(4-fluoro-phenyl)-5-isopropyl-oxazol-4-yl]-3H-[1,2,3]triazole-4-carbonitrile]", "values": [{"measurement": "EC50", "value": 0.68, "unit": "µM"}]}
{"smiles": "CC(C)c1oc(-c2ccc(OC(F)(F)F)cc2)nc1-c1nn[nH]c1C#N", "note": "[Example 124, 5-[5-isopropyl-2-(4-trifluoromethoxy-phenyl)-oxazol-4-yl]-3H-[1,2,3]triazole-4-carbonitrile]", "values": [{"measurement": "EC50", "value": 0.92, "unit": "µM"}]}
{"smiles": "CC(C)Cc1oc(-c2ccc(F)c(F)c2)nc1-c1nn[nH]c1C#N", "note": "[Example 125, 5-[2-(3,4-difluoro-phenyl)-5-isobutyl-oxazol-4-yl]-3H-[1,2,3]triazole-4-carbonitrile]", "values": [{"measurement": "EC50", "value": 0.54, "unit": "µM"}]}
{"smiles": "N#Cc1[nH]nnc1-c1sccc1-c1cc(C(F)(F)F)cc(C(F)(F)F)c1", "note": "[Example 126, 5-[3-(3,5-bis-trifluoromethyl-phenyl)-thiophen-2-yl]-3H-[1,2,3]triazole-4-carbonitrile]", "values": [{"measurement": "EC50", "value": 0.26, "unit": "µM"}]}
{"smiles": "N#Cc1[nH]nnc1-c1sccc1-c1cccc(OCc2cc(C(F)(F)F)ccc2C(F)(F)F)c1", "note": "[Example 127, 5-{3-[3-(2,5-bis-trifluoromethyl-benzyloxy)-phenyl]-thiophen-2-yl}-3H-[1,2,3]triazole-4-carbonitrile]", "values": [{"measurement": "EC50", "value": 0.74, "unit": "µM"}]}
{"smiles": "N#Cc1[nH]nnc1-c1cc(-c2ccccc2)c(C(F)(F)F)s1", "note": "[Example 128, 5-(4-phenyl-5-trifluoromethyl-thiophen-2-yl)-3H-[1,2,3]triazole-4-carbonitrile]", "values": [{"measurement": "EC50", "value": 0.56, "unit": "µM"}]}
{"smiles": "N#Cc1[nH]nnc1-c1ccc(-c2cc(F)cc(C(F)(F)F)c2)s1", "note": "[Example 129, 5-[5-(3-fluoro-5-trifluoromethyl-phenyl)-thiophen-2-yl]-3H-[1,2,3]triazole-4-carbonitrile]", "values": [{"measurement": "EC50", "value": 0.44, "unit": "µM"}]}
